Source: patent US12251382B2, “Substituted amino-pyrimidine compound for use in a method for treatment and prevention of multiple sclerosis” (Merck Patent GmbH, priority 2018, dated 2025)

Assay: Phase I Part 2 (multiple ascending dose study): safety and tolerability, TEAEs
Format: in vivo, human
Procedure: The decision whether to initiate Part 2 of the study, as well as the MAD starting dose, was determined by the SMC based on review of safety data from Part 1, with PK and PD data also used to inform the decision. Dose-limiting criteria and termination/stopping rules were as per Part 1 of the study. […] Ultimately, dose levels of 25, 75, and 200 mg were selected.
Data were summarized using descriptive statistics.

[1] = Part 2, 25 mg once daily, 14 days
[2] = Part 2, 75 mg once daily, 14 days
[3] = Part 2, 200 mg once daily, 14 days
[4] = Part 2, pooled active, listed as evobrutinib

C=CC(=O)N1CCC(CNc2ncnc(N)c2-c2ccc(Oc3ccccc3)cc2)CC1 [Evobrutinib, 1-(4-(((6-amino-5-(4-phenoxyphenyl)pyrimidin-4-yl)amino)methyl)piperidin-1-yl)prop-2-en-1-one]
Relation of gastrointestinal or other TEAEs to dose (Part 2): No relation to dose was observed | Severity of TEAEs and dose-limiting adverse events (Part 2): mild and no dose-limiting adverse events were reported | Abdominal discomfort, number of TEAEs [1]: 1 | Abdominal discomfort, subjects [1]: 1 (11.1) n (%) | Abdominal pain, subjects [1]: 0 (0.0) n (%) | Application site irritation, subjects [1]: 0 (0.0) n (%) | Complex regional pain, number of TEAEs [1]: 1 | Complex regional pain, subjects [1]: 1 (11.1) n (%) | Constipation, subjects [1]: 0 (0.0) n (%) | Dry throat, subjects [1]: 0 (0.0) n (%) | Excoriation, number of TEAEs [1]: 1 | Excoriation, subjects [1]: 1 (11.1) n (%) | Fatigue, subjects [1]: 0 (0.0) n (%) | Headache, number of TEAEs [1]: 1 | Headache, subjects [1]: 1 (11.1) n (%) | Muscle spasms, subjects [1]: 0 (0.0) n (%) | Muscle strain, number of TEAEs [1]: 1 | Muscle strain, subjects [1]: 1 (11.1) n (%) | Nausea, subjects [1]: 0 (0.0) n (%) | Overall total TEAEs, subjects [1]: 3 (33.3) n (%) | Overall total, number of TEAEs [1]: 6 | Rhinorrhea, number of TEAEs [1]: 1 | Rhinorrhea, subjects [1]: 1 (11.1) n (%) | Sneezing, subjects [1]: 0 (0.0) n (%) | Toothache, subjects [1]: 0 (0.0) n (%) | Upper respiratory tract infection, subjects [1]: 0 (0.0) n (%) | Abdominal discomfort, subjects [2]: 0 (0.0) n (%) | Abdominal pain, number of TEAEs [2]: 2 | Abdominal pain, subjects [2]: 1 (11.1) n (%) | Application site irritation, number of TEAEs [2]: 1 | Application site irritation, subjects [2]: 1 (11.1) n (%) | Complex regional pain, subjects [2]: 0 (0.0) n (%) | Constipation, number of TEAEs [2]: 1 | Constipation, subjects [2]: 1 (11.1) n (%) | Dry throat, number of TEAEs [2]: 1 | Dry throat, subjects [2]: 1 (11.1) n (%) | Excoriation, subjects [2]: 0 (0.0) n (%) | Fatigue, number of TEAEs [2]: 2 | Fatigue, subjects [2]: 2 (22.2) n (%) | Headache, number of TEAEs [2]: 2 | Headache, subjects [2]: 2 (22.2) n (%) | Muscle spasms, number of TEAEs [2]: 1 | Muscle spasms, subjects [2]: 1 (11.1) n (%) | Muscle strain, subjects [2]: 0 (0.0) n (%) | Nausea, number of TEAEs [2]: 2 | Nausea, subjects [2]: 1 (11.1) n (%) | Overall total TEAEs, subjects [2]: 7 (77.8) n (%) | Overall total, number of TEAEs [2]: 14 | Rhinorrhea, subjects [2]: 0 (0.0) n (%) | Sneezing, number of TEAEs [2]: 1 | Sneezing, subjects [2]: 1 (11.1) n (%) | Toothache, subjects [2]: 0 (0.0) n (%) | Upper respiratory tract infection, number of TEAEs [2]: 1 | Upper respiratory tract infection, subjects [2]: 1 (11.1) n (%) | Abdominal discomfort, subjects [3]: 0 (0.0) n (%) | Abdominal pain, subjects [3]: 0 (0.0) n (%) | Application site irritation, number of TEAEs [3]: 1 | Application site irritation, subjects [3]: 1 (11.1) n (%) | Complex regional pain, subjects [3]: 0 (0.0) n (%) | Constipation, subjects [3]: 0 (0.0) n (%) | Dry throat, subjects [3]: 0 (0.0) n (%) | Excoriation, subjects [3]: 0 (0.0) n (%) | Fatigue, subjects [3]: 0 (0.0) n (%) | Headache, subjects [3]: 0 (0.0) n (%) | Muscle spasms, subjects [3]: 0 (0.0) n (%) | Muscle strain, subjects [3]: 0 (0.0) n (%) | Nausea, subjects [3]: 0 (0.0) n (%) | Overall total TEAEs, subjects [3]: 3 (33.3) n (%) | Overall total, number of TEAEs [3]: 3 | Rhinorrhea, subjects [3]: 0 (0.0) n (%) | Sneezing, subjects [3]: 0 (0.0) n (%) | Toothache, number of TEAEs [3]: 1 | Toothache, subjects [3]: 1 (11.1) n (%) | Upper respiratory tract infection, number of TEAEs [3]: 1 | Upper respiratory tract infection, subjects [3]: 1 (11.1) n (%) | Number of gastrointestinal TEAEs (Part 2, all evobrutinib doses): Seven | Subjects with fatigue (Part 2, all evobrutinib doses): 7.4% | Subjects with gastrointestinal TEAEs (Part 2, all evobrutinib doses): 18.5% | Subjects with headache (Part 2, all evobrutinib doses): 11.1% | Subjects with skin irritation due to ECG pads (Part 2, all evobrutinib doses): 7.4% | Subjects with upper respiratory tract infection (Part 2, all evobrutinib doses): 7.4% | Subjects with TEAEs (Part 2, multiple dosing, all evobrutinib doses): 48.1% | Abdominal discomfort, number of TEAEs (Part 2, pooled active): 1 | Abdominal discomfort, subjects (Part 2, pooled active): 1 (3.7) n (%) | Abdominal pain, number of TEAEs (Part 2, pooled active): 2 | Abdominal pain, subjects (Part 2, pooled active): 1 (3.7) n (%) | Application site irritation, number of TEAEs (Part 2, pooled active): 2 | Application site irritation, subjects (Part 2, pooled active): 2 (7.4) n (%) | Complex regional pain, number of TEAEs (Part 2, pooled active): 1 | Complex regional pain, subjects (Part 2, pooled active): 1 (3.7) n (%) | Constipation, number of TEAEs (Part 2, pooled active): 1 | Constipation, subjects (Part 2, pooled active): 1 (3.7) n (%) | Dry throat, number of TEAEs (Part 2, pooled active): 1 | Dry throat, subjects (Part 2, pooled active): 1 (3.7) n (%) | Excoriation, number of TEAEs (Part 2, pooled active): 1 | Excoriation, subjects (Part 2, pooled active): 1 (3.7) n (%) | Fatigue, number of TEAEs (Part 2, pooled active): 2 | Fatigue, subjects (Part 2, pooled active): 2 (7.4) n (%) | Headache, number of TEAEs (Part 2, pooled active): 3 | Headache, subjects (Part 2, pooled active): 3 (11.1) n (%) | Muscle spasms, number of TEAEs (Part 2, pooled active): 1 | Muscle spasms, subjects (Part 2, pooled active): 1 (3.7) n (%) | Muscle strain, number of TEAEs (Part 2, pooled active): 1 | Muscle strain, subjects (Part 2, pooled active): 1 (3.7) n (%) | Nausea, number of TEAEs (Part 2, pooled active): 2 | Nausea, subjects (Part 2, pooled active): 1 (3.7) n (%) | Overall total TEAEs, subjects (Part 2, pooled active): 13 (48.1) n (%) | Overall total, number of TEAEs (Part 2, pooled active): 23 | Rhinorrhea, number of TEAEs (Part 2, pooled active): 1 | Rhinorrhea, subjects (Part 2, pooled active): 1 (3.7) n (%) | Sneezing, number of TEAEs (Part 2, pooled active): 1 | Sneezing, subjects (Part 2, pooled active): 1 (3.7) n (%) | Toothache, number of TEAEs (Part 2, pooled active): 1 | Toothache, subjects (Part 2, pooled active): 1 (3.7) n (%) | Upper respiratory tract infection, number of TEAEs (Part 2, pooled active): 2 | Upper respiratory tract infection, subjects (Part 2, pooled active): 2 (7.4) n (%) | Application site irritation, number of TEAEs [4]: two | Fatigue, number of TEAEs [4]: two | Headache, number of TEAEs [4]: three | Upper respiratory tract infection, number of TEAEs [4]: two
